We go through three molecules from US12133839B2, “Cannabinoid derivatives and methods for their preparation” (priority 2018, dated 2024).

Data set [1] has as its system Cytochrome P450 (Cy-P450).
The next data set relates to Cy-P450. To be noted: compared with CBD.

`CCCCCc1cc(O)c(C2CC(C)CCC2C(C)C)c(O)c1C(C)=O` (centres unmarked) [Tetradhydro 2′-acetyl CBD (III), [Ar]-Acetyl Tetrahydrocannabidiol]: the “time for which formation of 11-Hydroxy THC is prevented (enhanced CBD effect)” value in data set [1] was “about one”.
On to `CCCCCc1cc(O)c(C2CC(C)CCC2C(C)C)c(O)c1` (centres unmarked) [Tetrahydro CBD (II), Tetrahydrocannabidiol], for which the “duration of the increased CBD activity” value in data set [1] is reported as “only a few minutes”. In addition, in data set [1] (compared with CBD), the “increase in CBD activity, in effect and duration” value was “approximately double”. Besides, the “oxidation by Cy-P450” value with Cy-P450 is given as “slower oxidation”.
`CCCCCc1cc(O)c(C2CC(C)CCC2C(C)C)c(O)c1C(=O)CC` (centres unmarked) [[Ar]-Propionyl Tetrahydrocannabidiol]: in data set [1], the “time for which THC metabolism is delayed” value is on record as “up to 48 hours”.
